Data on four compounds can be found in ChEMBL document CHEMBL3046063, “Synthesis and antimicrobial activity of 5-chloroindoline-2,3-dione derivatives” (2012).

≈ marks a conversion by molar mass, not a printed value.

Type in all cases: functional
The subject of experiment [1] is Klebsiella pneumoniae. Kind of experiment: Antimicrobial activity against Klebsiella pneumoniae ATCC 13883 after 24 hr by broth dilution method. The settings on record: ATCC 13883, 24 h. (Dilution methods test growth across graded concentrations, often in twofold steps.)
Experiment [2] relates to Aspergillus fumigatus. The experiment can be described thus: Antimicrobial activity against Aspergillus fumigatus after 24 hr by broth dilution method.
Experiment [3] concerns Aspergillus niger. Kind of experiment: Antimicrobial activity against Aspergillus niger ATCC 9142 after 24 hr by broth dilution method. The settings on record: ATCC 9142, 24 h.
Experiment [4] deals with Aspergillus flavus. Kind of experiment: Antimicrobial activity against Aspergillus flavus ATCC 15517 after 24 hr by broth dilution method. The settings on record: ATCC 15517, 24 h.
Experiment [5] deals with Staphylococcus aureus. The experiment can be described thus: Antimicrobial activity against Staphylococcus aureus ATCC 25923 after 24 hr by broth dilution method. The settings on record: ATCC 25923, 24 h.
In experiment [6] the test system is Proteus vulgaris. Kind of experiment: Antimicrobial activity against Proteus vulgaris ATCC 13315 after 24 hr by broth dilution method. The settings on record: ATCC 13315, 24 h.
Experiment [7] concerns Bacillus cereus. The experiment can be described thus: Antimicrobial activity against Bacillus cereus ATCC 11778 after 24 hr by broth dilution method. The settings on record: ATCC 11778, 24 h.
For experiment [8], the system named is Salmonella typhi. Kind of experiment: Antimicrobial activity against Salmonella enterica subsp. enterica serovar Typhi ATCC 19430 after 24 hr by broth dilution method. The settings on record: ATCC 19430, 24 h.
Experiment [9] deals with Aspergillus awamori. Kind of experiment: Antimicrobial activity against Aspergillus awamori ATCC 22342 after 24 hr by broth dilution method. The settings on record: ATCC 22342, 24 h.
Experiment [10] concerns Bacillus spizizenii. Kind of experiment: Antimicrobial activity against Bacillus subtilis subsp. spizizenii ATCC 6633 after 24 hr by broth dilution method. The settings on record: ATCC 6633, 24 h.
In experiment [11] the test system is Proteus mirabilis. Kind of experiment: Antimicrobial activity against Proteus mirabilis ATCC 49565 after 24 hr by broth dilution method. The settings on record: ATCC 49565, 24 h.
Experiment [12] relates to Rhizoctonia solani. Kind of experiment: Antimicrobial activity against Rhizoctonia solani ATCC 76131 after 24 hr by broth dilution method. The settings on record: ATCC 76131, 24 h.
Experiment [13] relates to Staphylococcus hominis. The experiment can be described thus: Antimicrobial activity against Staphylococcus hominis ATCC 27844 after 24 hr by broth dilution method. The settings on record: ATCC 27844, 24 h.
In experiment [14] the test system is Alternaria alternata. The experiment can be described thus: Antimicrobial activity against Alternaria alternata ATCC 66868 after 24 hr by broth dilution method. The settings on record: ATCC 66868, 24 h.
Experiment [15] relates to Trichoderma viride. The experiment can be described thus: Antimicrobial activity against Hypocrea rufa ATCC 52440 after 24 hr by broth dilution method. The settings on record: ATCC 52440, 24 h.
For experiment [16], the system named is Pseudomonas aeruginosa. The experiment can be described thus: Antimicrobial activity against Pseudomonas aeruginosa ATCC 10145 after 24 hr by broth dilution method. The settings on record: ATCC 10145, 24 h.
Experiment [17] has as its system Microsporum canis. The experiment can be described thus: Antimicrobial activity against Arthroderma otae ATCC 11622 after 24 hr by broth dilution method. The settings on record: ATCC 11622, 24 h.
The subject of experiment [18] is Escherichia coli. Kind of experiment: Antimicrobial activity against Escherichia coli ATCC 25922 after 24 hr by broth dilution method. The settings on record: ATCC 25922, 24 h.
The test system of experiment [19] is Candida albicans. Kind of experiment: Antimicrobial activity against Candida albicans ATCC 10231 after 24 hr by broth dilution method. The settings on record: ATCC 10231, 24 h.
Experiment [20] has as its system Staphylococcus epidermidis. Kind of experiment: Antimicrobial activity against Staphylococcus epidermidis ATCC 12228 after 24 hr by broth dilution method. The settings on record: ATCC 12228, 24 h.
For experiment [21], the system named is Bacillus pumilus. Kind of experiment: Antimicrobial activity against Bacillus pumilus ATCC 14884 after 24 hr by broth dilution method. The settings on record: ATCC 14884, 24 h.
Experiment [22] concerns Trichophyton longifusum. Kind of experiment: Antimicrobial activity against Trichophyton longifusum ATCC 22397 after 24 hr by broth dilution method. The settings on record: ATCC 22397, 24 h.
The test system of experiment [23] is Fusarium solani. Kind of experiment: Antimicrobial activity against Fusarium solani ATCC 38136 after 24 hr by broth dilution method. The settings on record: ATCC 38136, 24 h.
Experiment [24] has as its system Micrococcus luteus. Kind of experiment: Antimicrobial activity against Micrococcus luteus ATCC 4698 after 24 hr by broth dilution method. The settings on record: ATCC 4698, 24 h.

For the compound `O=C1Nc2ccc(Cl)cc2/C1=N/N1C(=O)CSC1c1ccccc1` (stereo unspecified), the MIC in experiment [1] came out at 37.5 µg/mL (≈ 105 µM); in experiment [2], 18.8 µg/mL (≈ 52.4 µM); in [3], 18.8 µg/mL (≈ 52.4 µM); in experiment [4], 37.5 µg/mL (≈ 105 µM); in experiment [5] it was 37.5 µg/mL (≈ 105 µM); in [6] it was 75 µg/mL (≈ 210 µM). The MIC in [7] came out at 37.5 µg/mL (≈ 105 µM); in experiment [8] it was 75 µg/mL (≈ 210 µM); in experiment [9], 18.8 µg/mL (≈ 52.4 µM); in [10] it was 75 µg/mL (≈ 210 µM); in experiment [11], 75 µg/mL (≈ 210 µM); in experiment [12], 37.5 µg/mL (≈ 105 µM). Moreover, the MIC in [13] is 75 µg/mL (≈ 210 µM); in experiment [14] it was 37.5 µg/mL (≈ 105 µM); in [15] it was 37.5 µg/mL (≈ 105 µM); in [16], 37.5 µg/mL (≈ 105 µM); in experiment [17], 37.5 µg/mL (≈ 105 µM); in [18] it was 37.5 µg/mL (≈ 105 µM). In addition, the MIC turned out to be 9.37 µg/mL (≈ 26.2 µM) in [19]; 37.5 µg/mL (≈ 105 µM) in experiment [20]; 75 µg/mL (≈ 210 µM) in experiment [21]; 18.8 µg/mL (≈ 52.4 µM) in [22]; 18.8 µg/mL (≈ 52.4 µM) in [23]; 37.5 µg/mL (≈ 105 µM) in experiment [24].
Take `O=C1Nc2ccc(Cl)cc2/C1=N/N1C(=O)CSC1c1ccccc1Cl` (stereo unspecified): the MIC amounted to 150 µg/mL (≈ 382 µM) in experiment [1]; 150 µg/mL (≈ 382 µM) in [2]; 75 µg/mL (≈ 191 µM) in experiment [3]; 150 µg/mL (≈ 382 µM) in experiment [4]; 300 µg/mL (≈ 765 µM) in [5]; 300 µg/mL (≈ 765 µM) in experiment [6]. Moreover, the MIC in experiment [7] stood at 150 µg/mL (≈ 382 µM); in experiment [8] it was 150 µg/mL (≈ 382 µM); in [9] it was 150 µg/mL (≈ 382 µM); in experiment [10], 300 µg/mL (≈ 765 µM); in experiment [11], 300 µg/mL (≈ 765 µM); in experiment [12], 75 µg/mL (≈ 191 µM). The MIC in experiment [13] came to 150 µg/mL (≈ 382 µM); in experiment [14] it was 150 µg/mL (≈ 382 µM); in experiment [15], 75 µg/mL (≈ 191 µM); in [16] it was 150 µg/mL (≈ 382 µM); in experiment [17] it was 75 µg/mL (≈ 191 µM); in [18], 150 µg/mL (≈ 382 µM). The MIC was 150 µg/mL (≈ 382 µM) in experiment [19]; 150 µg/mL (≈ 382 µM) in experiment [20]; 150 µg/mL (≈ 382 µM) in experiment [21]; 150 µg/mL (≈ 382 µM) in experiment [22]; 150 µg/mL (≈ 382 µM) in experiment [23]; 300 µg/mL (≈ 765 µM) in experiment [24].
As for `O=C1Nc2ccc(Cl)cc2/C1=N/N1C(=O)CSC1c1ccc(Cl)cc1` (stereo unspecified), the MIC in experiment [1] amounted to 18.8 µg/mL (≈ 47.8 µM); in experiment [2], 4.68 µg/mL (≈ 11.9 µM); in [3], 4.68 µg/mL (≈ 11.9 µM); in experiment [4], 4.68 µg/mL (≈ 11.9 µM); in experiment [5], 18.8 µg/mL (≈ 47.8 µM); in experiment [6] it was 37.5 µg/mL (≈ 95.6 µM). The MIC was determined as 9.37 µg/mL (≈ 23.9 µM) in experiment [7]; 9.37 µg/mL (≈ 23.9 µM) in experiment [8]; 9.37 µg/mL (≈ 23.9 µM) in experiment [9]; 37.5 µg/mL (≈ 95.6 µM) in [10]; 18.8 µg/mL (≈ 47.8 µM) in experiment [11]; 9.37 µg/mL (≈ 23.9 µM) in experiment [12]. The MIC in experiment [13] is 9.37 µg/mL (≈ 23.9 µM); in experiment [14] it was 4.68 µg/mL (≈ 11.9 µM); in experiment [15] it was 9.37 µg/mL (≈ 23.9 µM); in experiment [16], 9.37 µg/mL (≈ 23.9 µM); in [17], 4.68 µg/mL (≈ 11.9 µM); in [18], 9.37 µg/mL (≈ 23.9 µM). In addition, the MIC in experiment [19] is 4.68 µg/mL (≈ 11.9 µM); in [20], 18.8 µg/mL (≈ 47.8 µM); in experiment [21], 9.37 µg/mL (≈ 23.9 µM); in experiment [22], 4.68 µg/mL (≈ 11.9 µM); in experiment [23], 9.37 µg/mL (≈ 23.9 µM); in experiment [24], 18.8 µg/mL (≈ 47.8 µM).
In the case of `COc1cccc(C2SCC(=O)N2/N=C2\C(=O)Nc3ccc(Cl)cc32)c1` (stereo unspecified), the MIC in experiment [1] stood at 37.5 µg/mL (≈ 96.7 µM); in experiment [2], 37.5 µg/mL (≈ 96.7 µM); in [3], 37.5 µg/mL (≈ 96.7 µM); in experiment [4], 18.8 µg/mL (≈ 48.3 µM); in experiment [5] it was 37.5 µg/mL (≈ 96.7 µM); in [6], 37.5 µg/mL (≈ 96.7 µM). Also, the MIC was found to be 75 µg/mL (≈ 193 µM) in experiment [7]; 75 µg/mL (≈ 193 µM) in experiment [8]; 37.5 µg/mL (≈ 96.7 µM) in [9]; 75 µg/mL (≈ 193 µM) in experiment [10]; 37.5 µg/mL (≈ 96.7 µM) in experiment [11]; 18.8 µg/mL (≈ 48.3 µM) in [12]. The MIC in [13] was determined as 37.5 µg/mL (≈ 96.7 µM); in experiment [14] it was 18.8 µg/mL (≈ 48.3 µM); in experiment [15] it was 18.8 µg/mL (≈ 48.3 µM); in [16], 75 µg/mL (≈ 193 µM); in [17] it was 18.8 µg/mL (≈ 48.3 µM); in experiment [18], 75 µg/mL (≈ 193 µM). Besides, the MIC in experiment [19] stood at 18.8 µg/mL (≈ 48.3 µM); in experiment [20], 75 µg/mL (≈ 193 µM); in [21], 75 µg/mL (≈ 193 µM); in experiment [22] it was 37.5 µg/mL (≈ 96.7 µM); in [23], 18.8 µg/mL (≈ 48.3 µM); in [24] it was 75 µg/mL (≈ 193 µM).

The term MIC denotes the lowest concentration found to suppress growth. A low value points to greater potency.
